Measurements reported in patent US20260272854A1, “PHARMACEUTICAL AGENT, MEDICINAL SOLUTION FOR CLEANING PULMONARY ALVEOLI, AND NEBULIZER” (priority 2019, published 2026).
Each block holds one compound with its values, some of them ahead of it.

Tests used:
[1] = Surface tension of a hanging droplet, Young-Laplace method (curve fitting); assay type: physicochemical; settings: for surface tension in 0.3 mg/ml bovine lung surfactant: 1 mM of polyamine, 10 seconds after production of hanging droplet; for surface tension, polyamine alone: 0-10000 msec; for surface tension reduction effect, polyamine alone: without surfactant
Description: Surface tension was measured by the Young-Laplace method (curve fitting) using a contact angle meter (B100, manufactured by Asumi Giken, Limited), on a droplet formed at the tip of a 20-gauge straight needle.
Tensiometer: contact angle meter (B100, manufactured by Asumi Giken, Limited)
Surface tension measurement method: Young-Laplace method (curve fitting)
Hanging droplet production method: a maximum size of droplet not to drop was produced at the tip of a 20-gauge straight needle (an autodispenser was used)
Imaging of hanging droplet: imaging was performed using a CCD camera
Bovine lung surfactant: a commercially available bovine lung extract artificial surfactant (Surfacten (trade name), manufactured by Mitsubishi Tanabe Pharma Corporation) was adjusted to a concentration of 30 mg/ml using physiological saline according to the package insert. […] In the drawings, the formulated surfactant solution is indicated by “30 mg/ml surf.”
10-fold diluted bovine lung surfactant: a commercially available bovine lung extract artificial surfactant (Surfacten (trade name), manufactured by Mitsubishi Tanabe Pharma Corporation) was adjusted to a concentration of 3 mg/ml using physiological saline. In the drawings, the formulated surfactant solution is indicated by “3 mg/ml surf.”
100-fold diluted bovine lung surfactant: a commercially available bovine lung extract artificial surfactant (Surfacten (trade name), manufactured by Mitsubishi Tanabe Pharma Corporation) was adjusted to a concentration of 0.3 mg/ml using physiological saline. Pulmonary surfactant was diluted with physiological saline, i.e., the resultant solution mimics the state of surfactant in a lung affected by ARDS. In the drawings, the formulated surfactant solution is indicated by “100-fold diluted bovine lung surfactant,” “0.3-mg/ml bovine lung surfactant,” “0.3 mg/ml surf,” or “ 1/100 Surf.”
1000-fold diluted bovine lung surfactant: a commercially available bovine lung extract artificial surfactant (Surfacten (trade name), manufactured by Mitsubishi Tanabe Pharma Corporation) was adjusted to a concentration of 0.03 mg/ml using physiological saline. In the drawings, the formulated surfactant solution is indicated by “0.03 mg/ml surf.”
Polyamine-containing 100-fold diluted bovine lung surfactant:
The solution was formulated using a commercially available polyamine chloride. […]

ARDS model [2] = test: Gas exchange dysfunction occurrence rate (P/F ratio<300) after pulmonary alveolar washing; assay type: in vivo, rat
Description: Ventilation was conducted by inverse ratio ventilation without using PEEP. The ventilation was conducted using ambient air (inhaled oxygen concentration FiO2: 0.21) without oxygen administration. The intra-airway pressure and the partial pressure of oxygen in the arterial blood (PaO2) were measured over time. Influence of the polyamine was analyzed, where dynamic lung compliance was used as a measure of the distensibility of the lung, and the P/F ratio<300 was used as a criterion for gas exchange dysfunction. […] Influence of Spm administered to pulmonary alveoli on the rate of occurrence of gas exchange dysfunction was analyzed, where the P/F ratio<300 was used as a criterion for gas exchange dysfunction. […] Cases (death) that death occurred before the measurement times, i.e., arterial blood sampling was not conducted, were counted as the case of occurrence of gas exchange dysfunction.

lung field = settings: rat d: washed with physiological saline, then physiological saline containing 5 mM of Spm; applied pressure 20 cm H2O
Description: Plain X-ray imaging and X-ray CT imaging were performed, with an air pressure (0 and 20 cm H2O) exerted through a tracheal cannula, on rats that were euthanized after pulmonary alveolar washing or rats that were subjected to pulmonary alveolar washing immediately after euthanization.
A rat a was a control that was not subjected to pulmonary alveolar washing. Specifically, a tracheal cannula was inserted into a rat under general anesthesia, and the rat was euthanized without pulmonary alveolar washing.
A rat b was subjected to pulmonary alveolar washing with physiological saline containing 1 mM of Spm. Specifically, a tracheal cannula was inserted into a rat under general anesthesia, and after the rat was euthanized, 20 ml/kg of a pulmonary alveolar washing solution (physiological saline containing 1 mM of Spm) was injected/suctioned consecutively 5 times within 2 minutes through the tracheal cannula, and the washing solution remaining in the trachea was suctioned out.
A rat c was subjected to pulmonary alveolar washing with physiological saline. Specifically, a tracheal cannula was inserted into a rat under general anesthesia. […]

lung affected by ARDS = settings: transairway administration of 5 mM of Spm, 20 ml/kg, 5 times, after first washing with physiological saline
Description: Specifically, influence of transairway administration of 5 mM of Spm to an ARDS model animal on lung compliance was analyzed.
A tracheal cannula was inserted into a rat under general anesthesia, and then euthanized. Immediately after that, artificial ventilation was conducted for 30 seconds, and lung compliance before washing that is calculated based on intra-airway pressure was set as 1.0 (“before washing” on the left slide of FIG. 10). Following this, a lung affected by ARDS was produced. Specifically, an injection/suction operation was conducted 5 times consecutively within 2 minutes using 20 ml/kg of physiological saline through the tracheal cannula. After the washing solution remaining in the tracheal cannula was suctioned out, artificial ventilation was conducted for 30 seconds, and the lung compliance of the lung affected by ARDS was calculated and compared with that of the normal lung (“first pulmonary alveolar washing” at the center of FIG. 10). […] After the washing solution remaining in the tracheal cannula was suctioned out, artificial ventilation was conducted for 30 seconds, and the lung compliance calculated based on intra-airway pressure (“second pulmonary alveolar washing” (open column) on the right side of FIG. 10) was compared with that of the lung affected by ARDS. […]

ARDS model [3] = test: Dynamic lung compliance after pulmonary alveolar washing, ventilated ARDS model rat; assay type: in vivo; settings: for lung compliance after pulmonary alveolar washing: 20 ml/kg, 5 times within 2 minutes; for time it took to recover to 0.9 (lung compliance before washing set as 1.0): average
Description: When the respiratory and circulatory dynamics of the rat were stable under artificial ventilation, an injection/suction operation using 20 ml/kg of a pulmonary alveolar washing solution (physiological saline) through the tracheal cannula was conducted […] consecutively within 2 minutes. […] Thus, an ARDS model whose pulmonary alveoli were washed with physiological saline was produced. The pulmonary alveolar washing operation means production of a respiratory distress syndrome (ARDS) model having decreased lung compliance.
(§1) The above ventilation was conducted by inverse ratio ventilation without using PEEP. The ventilation was conducted using ambient air (inhaled oxygen concentration FiO2: 0.21) without oxygen administration. The intra-airway pressure and the partial pressure of oxygen in the arterial blood (PaO2) were measured over time. Influence of the polyamines was analyzed, where dynamic lung compliance (=a tidal volume/a change in intra-airway pressure) (expression 1) was used as a measure of the distensibility of the lung, and PaO2/FiO2 (P/F ratio)<300 was used as a criterion for gas exchange dysfunction.
(§2) When the respiratory and circulatory dynamics of the rat were stable under artificial ventilation, 20 ml/kg of a pulmonary alveolar washing solution (physiological saline) was injected/suctioned consecutively 5 times within 2 minutes through the tracheal cannula. […] Thus, an ARDS model whose pulmonary alveoli were washed with physiological saline was produced.
as §2, with “(physiological saline containing 0.5 mM of Spm)” for “(physiological saline)”, “with 0.5 mM of Spm” for “with physiological saline”
as §1, with “polyamine” for “polyamines”, “compliance” for “compliance (=a tidal volume/a change in intra-airway pressure) (expression 1)”, “the P/F ratio<300” for “PaO2/FiO2 (P/F ratio)<300”
as §2, with “(physiological saline containing 1 mM of Spm)” for “(physiological saline)”, “with 1 mM of Spm” for “with physiological saline”
When the respiratory and circulatory dynamics of the rat were stable under artificial ventilation, 20 ml/kg of a pulmonary alveolar washing solution (0.3 mg/ml of a bovine lung extract artificial surfactant; the bovine lung extract artificial surfactant was formulated by dissolving Surfacten (trade name), manufactured by Mitsubishi Tanabe Pharma Corporation, in physiological saline to a concentration of 0.3 mg/ml, which is 1/100 of the concentration that is normally for administration to a preterm infant) was injected/suctioned consecutively 5 times within 2 minutes through the tracheal cannula. […] Note that it was confirmed that no polyamines are detected in the bovine lung extract artificial surfactant. […]

SMILES: NCCCCCCN [diaminohexane]
surface tension in 0.3 mg/ml bovine lung surfactant [1]: reduction in surface tension
surface tension, polyamine alone ([1]; 1 mM without surfactant): 62 mN/m
surface tension reduction effect, polyamine alone [1]: does not have the surface tension reduction effect

SMILES: NCCCCN [Put, putrescine]
surface tension reduction effect in diluted surfactant environment ([1]; Put-containing 0.3 mg/ml bovine lung surfactant, 60 seconds after formation of hanging droplet): observed on several tens of seconds after formation of a hanging droplet
surface tension reduction effect, polyamine alone [1]: does not have the surface tension reduction effect

The next lines start with results.

surface tension in 0.3 mg/ml bovine lung surfactant [1]: reduction in surface tension
surface tension, polyamine alone ([1]; 1 mM without surfactant): 63 mN/m
SMILES: CC(=O)NCCCNCCCCN [N1-AcSpd, N1-acetylspermidine]
surface tension reduction effect, polyamine alone [1]: does not have the surface tension reduction effect

surface tension, polyamine alone ([1]; 0.5 mM of Spm without surfactant): 64 mN/m
surface tension of 0.3 mg/ml surf ([1]; presence of 0.5, 1 and 2 mM of Spm): reduced surface tension
SMILES: NCCCNCCCCNCCCN [Spm, spermine]
surface tension reduction effect, polyamine alone [1]: does not have such a surface tension reduction effect
gas exchange dysfunction occurrence rate (ARDS model [2]; 20 minutes after washing, 1 mM of Spm): lower than the others
gas exchange dysfunction occurrence rate (ARDS model [2]; 1 hour after washing, Spm-containing physiological saline (0.5 and 1 mM) compared to physiological saline): significantly decreased
CT images of lung field (lung field): no wide range of infiltrative shadow was observed
X-ray images of lung field (lung field): the cardiac shadow became clear
lung compliance after second pulmonary alveolar washing (lung affected by ARDS): improved the lung compliance
lung compliance after pulmonary alveolar washing (ARDS model [3]; physiological saline containing 0.5 mM of Spm): lung compliance subsequently recovered
lung compliance after pulmonary alveolar washing (ARDS model [3]; physiological saline containing 1 mM of Spm): lung compliance subsequently recovered
effect of improving lung compliance, 1 mM versus 0.5 mM of Spm (ARDS model [3]; until 60 minutes after washing): higher for 1 mM of Spm
time it took to recover to 0.9 (lung compliance before washing set as 1.0) (ARDS model [3]; washing with 0.5 mM of Spm): 60 min
time it took to recover to 0.9 (lung compliance before washing set as 1.0) (ARDS model [3]; washing with 1 mM of Spm): 15 min

surface tension reduction effect in diluted surfactant environment ([1]; Spd-containing 0.3 mg/ml bovine lung surfactant): has the surface tension reduction effect
SMILES: NCCCCNCCCN [Spd, spermidine]
surface tension reduction effect, polyamine alone [1]: does not have the surface tension reduction effect
